Test results from ChEMBL document CHEMBL1201862, “PubChem BioAssay data set” (2004).
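Protocol summary: plate cells (96-well), add compound at 5 concentrations, incubate 48 h, interpolate endpoints linearly. GI50 is the concentration that inhibits growth by half.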 The source made the active and inactive calls. No stated cut-off is given here; in the data, active = GI50 up to about 1.1 µM and inactive = higher.

Tests used:
Assay in all cases: NCI-60 cell line screen, 48 h
A549 = system: A549
CCRF-CEM = system: CCRF-CEM
HCT-116 = system: HCT-116
HCT-15 = system: HCT-15
MDA-N = system: MDA-N
MOLT-4 = system: MOLT-4
Malme-3M = system: Malme-3M
NCI-H226 = system: NCI-H226
NCI-H23 = system: NCI-H23
NCI-H460 = system: NCI-H460
OVCAR-4 = system: OVCAR-4
SF-268 = system: SF-268
SK-MEL-28 = system: SK-MEL-28
SK-MEL-2 = system: SK-MEL-2
SK-MEL-5 = system: SK-MEL-5
SK-OV-3 = system: SK-OV-3
SNB-19 = system: SNB-19
SR = system: SR
TK-10 = system: TK-10
BT-549 = system: BT-549

Structure (SMILES)	GI50 (A549)	GI50 (CCRF-CEM)	GI50 (HCT-116)	GI50 (HCT-15)	GI50 (MDA-N)	GI50 (MOLT-4)	GI50 (Malme-3M)	GI50 (NCI-H226)	GI50 (NCI-H23)	GI50 (NCI-H460)	GI50 (OVCAR-4)	GI50 (SF-268)	GI50 (SK-MEL-28)	GI50 (SK-MEL-2)	GI50 (SK-MEL-5)	GI50 (SK-OV-3)	GI50 (SNB-19)	GI50 (SR)	GI50 (TK-10)	GI50 (BT-549)
CCOC(=O)c1cnc2oc(/C=N/N3CC(CN4CCOCC4)OC3=O)cc2c1O (configuration not stated)	> 100 µM (inactive)	> 100 µM (inactive)	> 100 µM (inactive)	> 100 µM	> 100 µM (inactive)	> 100 µM (inactive)	> 100 µM (inactive)	> 100 µM (inactive)	> 100 µM (inactive)	> 100 µM (inactive)	> 100 µM (inactive)	> 100 µM (inactive)	> 100 µM (inactive)	> 100 µM (inactive)	> 100 µM (inactive)	> 100 µM (inactive)	> 100 µM (inactive)	> 100 µM (inactive)	> 100 µM (inactive)	–
COc1cc([C@@H]2c3cc4c(cc3[C@@H](OC3OC5COC(C)OC5C(OC(=O)CN5CCN(C)CC5)C3OC(=O)CN3CCN(C)CC3)C3COC(=O)[C@@H]32)OCO4)cc(OC)c1OC(=O)CN1CCN(C)CC1 (some centres not stated)	–	9.29 µM (inactive)	25.5 µM (inactive)	> 100 µM	> 100 µM (inactive)	2.49 µM (inactive)	61.7 µM (inactive)	50.4 µM (inactive)	22.3 µM (inactive)	11.2 µM (inactive)	> 100 µM (inactive)	75.3 µM (inactive)	–	> 100 µM (inactive)	43.5 µM (inactive)	> 100 µM (inactive)	78.7 µM (inactive)	–	> 100 µM (inactive)	34.4 µM (inactive)
CCOC(=O)C1(C)CCc2sc(N)c(C#N)c21 (configuration not stated)	> 100 µM (inactive)	> 100 µM (inactive)	> 100 µM (inactive)	> 100 µM	> 100 µM (inactive)	> 100 µM (inactive)	> 100 µM (inactive)	> 100 µM (inactive)	> 100 µM (inactive)	> 100 µM (inactive)	–	–	> 100 µM (inactive)	> 100 µM (inactive)	> 100 µM (inactive)	–	> 100 µM (inactive)	–	> 100 µM (inactive)	> 100 µM (inactive)
c1ccc2c(c1)-c1ccccc1C2NC1=NCCO1	32.4 µM (inactive)	32.6 µM (inactive)	16.7 µM (inactive)	9.4 µM	11.8 µM (inactive)	29.4 µM (inactive)	13.1 µM (inactive)	23.8 µM (inactive)	34.1 µM (inactive)	14 µM (inactive)	25.2 µM (inactive)	30 µM (inactive)	24.9 µM (inactive)	18.8 µM (inactive)	15.7 µM (inactive)	31.4 µM (inactive)	36.6 µM (inactive)	30.3 µM (inactive)	28.1 µM (inactive)	–
N#Cc1cnn2c1n[n+]([O-])c1ccc(Cl)cc12	14.1 µM (inactive)	1.75 µM (inactive)	8.75 µM (inactive)	1.97 µM	8.65 µM (inactive)	7.31 µM (inactive)	7.69 µM (inactive)	18.6 µM (inactive)	5.7 µM (inactive)	11.4 µM (inactive)	2.23 µM (inactive)	9.73 µM (inactive)	13.2 µM (inactive)	7.31 µM (inactive)	12.4 µM (inactive)	8.61 µM (inactive)	3.11 µM (inactive)	–	57.8 µM (inactive)	12.8 µM (inactive)
C[C@@H]1C[C@@]2(O[C@@H]2C)C(=O)O[C@@H]2CCN3CC=C(COC(=O)[C@]1(C)O)[C@H]23	> 100 µM (inactive)	> 100 µM (inactive)	> 100 µM (inactive)	> 100 µM	> 100 µM (inactive)	> 100 µM (inactive)	> 100 µM (inactive)	> 100 µM (inactive)	> 100 µM (inactive)	> 100 µM (inactive)	> 100 µM (inactive)	> 100 µM (inactive)	> 100 µM (inactive)	> 100 µM (inactive)	> 100 µM (inactive)	> 100 µM (inactive)	> 100 µM (inactive)	–	> 100 µM (inactive)	> 100 µM (inactive)
CCOC(=O)c1cnc2oc3ccc(O)cc3c2c1-c1ccccc1	32.4 µM (inactive)	16.4 µM (inactive)	57.8 µM (inactive)	26.7 µM	52.7 µM (inactive)	7.4 µM (inactive)	23 µM (inactive)	32.2 µM (inactive)	32.7 µM (inactive)	13.2 µM (inactive)	24.4 µM (inactive)	–	36.6 µM (inactive)	15.1 µM (inactive)	29.2 µM (inactive)	15.8 µM (inactive)	52.4 µM (inactive)	22.6 µM (inactive)	> 100 µM (inactive)	–
CCOc1ccc2nc3nc(O)nc(C)c3c(NCCCN(CC)CC)c2c1	> 100 µM (inactive)	> 100 µM (inactive)	> 100 µM (inactive)	> 100 µM	> 100 µM (inactive)	> 100 µM (inactive)	> 100 µM (inactive)	> 100 µM (inactive)	> 100 µM (inactive)	> 100 µM (inactive)	> 100 µM (inactive)	> 100 µM (inactive)	> 100 µM (inactive)	> 100 µM (inactive)	> 100 µM (inactive)	> 100 µM (inactive)	> 100 µM (inactive)	–	> 100 µM (inactive)	> 100 µM (inactive)
COc1cc(/C=C2\S/C(=N/Nc3nc(-c4ccc(Br)cc4)cs3)NC2=O)cc(OC)c1OC	13.6 µM (inactive)	2.45 µM (inactive)	4.49 µM (inactive)	11.3 µM	17.4 µM (inactive)	3.78 µM (inactive)	–	4.09 µM (inactive)	5.11 µM (inactive)	11.9 µM (inactive)	17.8 µM (inactive)	20 µM (inactive)	10.4 µM (inactive)	15.1 µM (inactive)	5.02 µM (inactive)	13 µM (inactive)	4.74 µM (inactive)	–	12 µM (inactive)	7.82 µM (inactive)
CC(=O)O[C@H]1C(=O)O[C@@H]2C[C@H]3C(C)=CC(=O)[C@@H](O)[C@]3(C)[C@H]3[C@@]4(O)OC[C@]32[C@@H]1[C@@H](C)[C@H]4O	–	0.0328 µM (active)	0.0234 µM (active)	0.0759 µM	0.0211 µM (active)	0.022 µM (active)	0.0232 µM (active)	–	0.0268 µM (active)	–	0.0577 µM (active)	0.0432 µM (active)	0.0281 µM (active)	0.0611 µM (active)	0.0247 µM (active)	0.524 µM (active)	–	–	< 0.0234 µM (active)	0.0312 µM (active)
N#Cc1nc(CCC(C(=O)O)N2C(=O)c3ccccc3C2=O)oc1N (configuration not stated)	41.7 µM (inactive)	> 100 µM (inactive)	> 10 µM (inactive)	> 100 µM	> 100 µM (inactive)	> 100 µM (inactive)	> 100 µM (inactive)	> 100 µM (inactive)	> 100 µM (inactive)	> 100 µM (inactive)	> 100 µM (inactive)	> 100 µM (inactive)	> 100 µM (inactive)	> 100 µM (inactive)	> 100 µM (inactive)	> 100 µM (inactive)	> 100 µM (inactive)	> 100 µM (inactive)	> 100 µM (inactive)	–
c1cncc(C2(c3cc4ccccc4[nH]3)COCO2)c1 (configuration not stated)	94.2 µM (inactive)	10.5 µM (inactive)	71 µM (inactive)	> 100 µM	–	97.9 µM (inactive)	> 100 µM (inactive)	> 100 µM (inactive)	> 100 µM (inactive)	> 100 µM (inactive)	65 µM (inactive)	> 100 µM (inactive)	> 100 µM (inactive)	> 100 µM (inactive)	38.2 µM (inactive)	> 100 µM (inactive)	> 100 µM (inactive)	> 100 µM (inactive)	> 100 µM (inactive)	> 100 µM (inactive)
C[C@@H](c1ccccc1)N(CC#N)[C@H]1CCC[C@]1(O)/C=C/c1ccc2c(c1)OCO2	> 25 µM (inactive)	> 25 µM (inactive)	> 25 µM (inactive)	> 25 µM	> 25 µM (inactive)	> 25 µM (inactive)	> 25 µM (inactive)	> 25 µM (inactive)	> 25 µM (inactive)	> 25 µM (inactive)	> 25 µM (inactive)	> 25 µM (inactive)	> 25 µM (inactive)	> 25 µM (inactive)	> 25 µM (inactive)	> 25 µM (inactive)	> 25 µM (inactive)	> 25 µM (inactive)	> 25 µM (inactive)	–
CC1CCC2(O)C3(C)CC4(O)OC2(C1O)C1(O)C3(O)C(OC(=O)c2ccc[nH]2)C(O)(C(C)C)C41C (configuration not stated)	> 100 µM (inactive)	> 100 µM (inactive)	> 100 µM (inactive)	> 100 µM	> 100 µM (inactive)	–	> 100 µM (inactive)	> 100 µM (inactive)	> 100 µM (inactive)	> 100 µM (inactive)	> 100 µM (inactive)	> 31.6 µM (inactive)	> 100 µM (inactive)	> 100 µM (inactive)	> 100 µM (inactive)	> 100 µM (inactive)	> 100 µM (inactive)	–	> 100 µM (inactive)	> 100 µM (inactive)
CSc1scc2c1/C(=N/NC(N)=O)CCC2	78.3 µM (inactive)	41.1 µM (inactive)	70 µM (inactive)	> 100 µM	45.3 µM (inactive)	58.1 µM (inactive)	–	22.4 µM (inactive)	> 100 µM (inactive)	94.4 µM (inactive)	> 100 µM (inactive)	38.5 µM (inactive)	> 100 µM (inactive)	> 100 µM (inactive)	41.1 µM (inactive)	> 100 µM (inactive)	> 100 µM (inactive)	–	> 100 µM (inactive)	80 µM (inactive)
